Data taken from patent US9006191B2, “Silencing of polo-like kinase expression using interfering RNA” (Protiva Biotherapeutics, Inc., priority 2007, dated 2015).
Where “and” joins values, the source holds several entries; their conditions need not be identical. Identical values can stand only once. Strand notation (5' to 3'): a small letter for the sugar, then the base; units joined by * are phosphorothioate-linked, units joined directly phosphodiester-linked; [ ] holds rarer units or linkages, { } end groups; capitals alone tell only the bases. d = 2'-deoxy (DNA); r = 2'-OH (RNA)

Tests used:
hepatocellular carcinoma = settings: patients with advanced disease, phase III; cited from earlier work
Neuro2A cells = assay: Neuro2A cell viability assay (CellTiter-Blue); type: cell-based; settings: mouse Neuro2A cells, SNALP-formulated siRNA, viability at 72 h relative to PBS
Method: Various PLK-1 siRNAs were formulated as SNALP (“2:40” SNALP formulation: 2% PEG-cDMA; 40% DLinDMA; 10% DSPC; and 48% cholesterol) and evaluated for their inhibitory effects on cell growth in vitro. HT29 (human colon adenocarcinoma) or Neuro2A (mouse neuroblastoma) cells were treated with various PLK-1 SNALP at a range of siRNA concentrations and their effect on cell viability was evaluated. Viability of cell cultures is expressed as % viability relative to PBS treated controls.
Additional PLK-1 siRNA molecules were formulated as SNALP (“2:40” SNALP formulation: 2% PEG-cDMA; 40% DLinDMA; 10% DSPC; and 48% cholesterol) and evaluated for their inhibitory effects on cell growth in vitro. HT29 or Neuro2A cells were plated in triplicate at 5000 cells/well and 2500 cells/well, respectively. PLK-1 SNALP dosages were as follows: 25 nM; 5 nM; and 1 nM. Cell viability analysis was performed at 72 hours following transfection. SNALP containing a non-targeting (GFP) siRNA were used as a negative control.
Additional PLK-1 siRNA molecules were formulated as SNALP (“2:40” SNALP formulation: 2% PEG-cDMA; 40% DLinDMA; 10% DSPC; and 48% cholesterol) and evaluated for their inhibitory effects on cell growth in vitro. HT29 or Neuro2A cells were plated in triplicate at 5000 cells/well and 2500 cells/well, respectively. PLK-1 SNALP dosages were as follows: 30 nM; 10 nM; and 3.3 nM. Cell viability analysis was performed at 72 hours following transfection. SNALP containing a non-targeting (GFP) siRNA were used as a negative control.

[1] = SNALP particle size and polydispersity; type: physicochemical
KSP mRNA = KSP mRNA silencing in Neuro2a cells (bDNA assay); type: cell-based, mouse; settings: 24 h after transfection
Source text: Activity of the 2′OMe-modified panels of (A) PLK1424 and (B) PLK773 siRNA. Unmodified PLK1424 or PLK773 siRNA (black) were compared in the Hep3B cell viability assay to the 2′OMe modified duplexes 1/A, 2/A, 1/B, 2/B, 1/C, or 2/C that comprise the respective 2′OMe sense/antisense oligonucleotides (see, Table 6). Data are mean viability of triplicate cultures relative to PBS treated cells and representative of 2 independent experiments using SNALP-formulated siRNA. (C) Cytokine induction by unmodified and 2′OMe PLK-1 siRNA in vitro. Murine Flt3L DC were treated with 5 μg/mL unmodified PLK773 or PLK1424 siRNA duplexes (773, 1424) and their constituent sense (S) or antisense (AS) oligonucleotides or the 2′OMe siRNA duplexes PLK773-1/B and PLK1424-2/A formulated in SNALP. IFNα and IL-6 were assayed in culture supernates at 24 h. Values are mean+SD of 3 separate experiments conducted in triplicate cultures. (D,E) Activity of SNALP-formulated KSP2263 siRNA in murine Neuro2a cells. (D) Correlation between KSP mRNA silencing and cell viability relative to PBS control. KSP mRNA was determined by bDNA analysis at 24 h. Duplicate plates were assessed for cell viability at 72 h. (E) Activity screen comparing the unmodified KSP2263 siRNA to the panel of 2′OMe-modified duplexes (see, Table 6) in the Neuro2a cell viability assay. Data represents mean+/−SD triplicate cultures, relative to PBS treatment. […]

HeLa cells = assay: Monoastral spindle formation in HeLa cells; type: cell-based, human; settings: 20 nM, 16 h
Method: HeLa cells were treated for 16 h with (A) Luc or (B) KSP2263 siRNA at 20 nM then immunostained for α-tubulin (FITC). DNA was stained with DAPI and flourescent images captured and overlayed.

Hep3B liver tumors = assay: Intrahepatic Hep3B tumor model (survival, body weight, tumor burden); type: in vivo; settings: Hep3B-nu/nu mouse model, 2 mg/kg twice weekly d11-d28
Method: SNALP containing PLK-1 siRNA (“1:57” SNALP formulation: 1.4% PEG-cDMA; 57.1% DLinDMA; 7.1% DPPC; and 34.3% cholesterol) were tested for their effects on the survival of […] mice bearing Hep3B liver tumors.
Intrahepatic tumor models. Liver tumors were established in mice by direct intrahepatic injection of Hep3B or Neuro2a tumor cells (45). Female scid/beige mice (Charles River Laboratories) and male A/J mice (Jackson Laboratories) were used as hosts for the Hep3B and Neuro2a tumors, respectively. Animals received Anafen by SC injection immediately prior to surgery. Individual mice were anaesthetized by isoflourane gas inhalation and eye lube applied to prevent excessive eye drying. While maintained under gas anaesthesia, a single 1.5 cm incision across the midline was made below the sternum and the left lateral hepatic lobe exteriorized. 1×10^6 Hep3B cells or 1×10^5 Neuro2a cells suspended in 25 μL PBS were injected slowly into the lobe at a shallow angle using a Hamilton syringe and 30G needle. A swab was then applied to the puncture wound to stop any bleeding prior to suturing. Mice were allowed to recover from anaesthesia in a sterile cage and monitored closely for 2-4 h before being returned to conventional housing.
Eight to 11 days after tumor implantation, mice were randomized into treatment groups. siRNA SNALP formulations or PBS vehicle control were administered by standard intravenous injection via the lateral tail vein, calculated on a mg siRNA/kg basis according to individual animal weights (10 mL/kg injection volume). Body weights were then monitored throughout the duration of the study as an indicator of developing tumor burden and treatment tolerability. For efficacy studies, defined humane endpoints were determined as a surrogate for survival. Assessments were made by qualified veterinary technicians based on a combination of clinical signs, weight loss, and abdominal distension to define the day of euthanization due to tumor burden.
Measurement of human PLK-1 and GAPDH mRNA in tumor tissues. Tumors were harvested directly into RNALater and stored at 4° C. until processing. 100 mg tumor tissue was homogenized in Tissue and Lysis Solution (EpiCentre Biotechnologies) containing […] proteinase K (EpiCentre) in a Fastprep tissue homogenizer followed by incubation in a 65° C. waterbath for 15 min and centrifuged to clarify lysates. mRNA analysis in FIG. 33B was performed on purified RNA isolated according the 5′-RACE-PCR protocol. Human PLK-1 and GAPDH mRNA were measured in tumor lystes by the QuantiGene bDNA assay (Panomics) as per the manufacturer's instructions (Quantigene 1.0 Manual). […] Data were expressed as mean PLK-1:GAPDH ratio+/−SD of individual animals. Tumor burden was assessed by homogenizing the complete liver from tumor bearing mice and measuring the total hGAPDH signal (RLU's) within the liver. Values were expressed as hGAPDH RLU/mg total liver.

IFIT1 mRNA, serum IFNα [2] = settings: mouse, in vivo, iv
Method: (§1) Balb/c mice (n=4 per group) were administered 2.5 mg/kg siRNA or lipid vehicle; serum IFNα (pg/mL) and IFIT1 mRNA (relative to GAPDH) from whole liver lysates were assessed after 4, 8, and 16 h by ELISA and bDNA assay, respectively. […] (b) Serum IFNα and (c) liver IFIT1 mRNA were assessed 4 h after administration (mean+SD, n=4).
(§2) SNALP-formulated Luc (unmodified) and the 2′OMe-modified Luc-U/U, PLK1424-2/A, PLK773-1/B, or KSP2263-U/U siRNA were administered at 2 mg/kg i.v. to Balb/C mice. (A) IFIT1 relative to GAPDH mRNA in liver and spleen was assessed at 4 h by bDNA analysis. […] Serum IFNα was assessed at 6 h by ELISA. […] Values represent mean+SD (n=4).
(§3) IFIT1 mRNA and serum cytokines were assessed 4-6 h after SNALP administration based on the approximate time of peak response for these markers. In these studies, SNALP-formulated native Luc siRNA (Table 6) was used as a positive control for immune stimulation.
(§4) In vivo immune stimulation assays. […] 6-8 week old Balb/C mice were obtained from Harlan and subject to a two week acclimation period prior to use. Mice were administered SNALP formulated siRNA (2 mg/kg) in PBS via standard intravenous injection in the lateral tail vein. Blood was collected by cardiac puncture and processed as plasma for cytokine analysis. Liver and spleen were collected into RNALater (Sigma Co.) for IFIT1 mRNA analysis.
(§5) Measurement of IFIT1 mRNA in mouse tissues. Murine liver and spleen were processed for bDNA assay to quantitate IFIT1 mRNA as described above. The IFIT1 probe set was specific to mouse IFIT1 mRNA (positions 4-499 of NM—008331) and the GAPDH probe set was specific to mouse GAPDH mRNA (positions 9-319 of NM—008084). Data is shown as the ratio of IFIT1 relative light units (RLU) to GAPDH RLU.
(§6) Cytokine ELISA. All cytokines were quantified using sandwich ELISA kits. These were mouse interferon-α (PBL Biomedical; Piscataway, N.J.) and human and mouse IL-6 (BD Biosciences; San Diego, Calif.).

IFIT1 mRNA, serum IFNα [3] = assay: In vivo immune stimulation assay in Balb/c mice (IFIT1 mRNA, serum IFNα); settings: 2 mg/kg IV, 4 h
Method: as §1, §2, §3, §4, §5, §6

IFN-α, IFIT1 mRNA = assay: In vivo immune stimulation assay in CD1 ICR mice (plasma IFN-α, IFIT1 mRNA); set-up: species or system mouse; settings: 1:57 PEG-cDMA SNALP, 3 mg/kg IV, 4 h
Method: In vivo immune stimulation assays. Animal studies were performed to test for the immunostimulatory activity of SNALP containing 2′OMe-modified PLK1424 siRNAs. Six-week-old female CD1 ICR mice were used in this study. […] The tolerability of the treatment regime was monitored by animal appearance and behavior.

[4] = test system: anti-PEG-lipid IgG and IgM antibodies; assay: In vivo PEG-lipid antibody induction assay; set-up: species or system mouse; settings: CD1 ICR mice, 1:57 SNALP IV at Days 0, 7, 14; plasma Days 7, 14, 21
Method: In vivo PEG-lipid antibody induction assays. Animal studies were performed to test for the induction of an antibody response to 2′OMe-modified PLK1424 siRNAs that were encapsulated in a 1:57 SNALP formulation containing the lipid conjugate PEG-cDMA. Six-week-old female CD1 ICR mice were used in this study. […] Mice were then sacrificed on Day 21. The tolerability of the treatment regime was monitored by animal appearance, behavior, and body weight. Anti-PEG-lipid IgG and IgM antibodies in plasma at Days 7, 14, and 21 were measured by ELISA.

CNC(=O)c1cc(Oc2ccc(NC(=O)Nc3ccc(Cl)c(C(F)(F)F)c3)cc2)ccn1 [Sorafenib]
survival time (hepatocellular carcinoma): 10.7 mo

KSP2263: published siRNA targeting KSP, SEQ ID NO:225/226 (chain 1 rCrUrGrArArGrArCrCrUrGrArArGrArCrArArUdTdT; chain 2 rArUrUrGrUrCrUrUrCrArGrGrUrCrUrUrCrArGdTdT)
cell viability / inhibition of cell growth (Neuro2A cells): loss of cell viability at 72 h
mean SNALP particle size [1]: 88 nm
polydispersity [1]: 0.07
KSP mRNA (KSP mRNA): dose-dependent reductions in KSP mRNA
monoastral spindle phenotype (HeLa cells): monoastral spindles

Luc: unmodified siRNA targeting luciferase, SEQ ID NO:231/232 (chain 1 GAUUAUGUCCGGUUAUGUAUU; chain 2 UACAUAACCGGACAUAAUCUU; unmodified RNA)
median survival, Study (A) (Hep3B liver tumors): 67 days
median survival, study (B) (Hep3B liver tumors): undefined
mean SNALP particle size [1]: 90 nm and 82 nm and 72 nm
serum IFNα / serum cytokine response (IFIT1 mRNA, serum IFNα [2]): detection of systemic IFNα
increase in IFIT1 mRNA in the liver compared to PBS (IFIT1 mRNA, serum IFNα [3]): 83 fold
increase in IFIT1 mRNA in the spleen compared to PBS (IFIT1 mRNA, serum IFNα [3]): 247 fold

PLK1424 2/3: 2′OMe-modified PLK1424 siRNA, SEQ ID NO:400/215 (chain 1 AGANCACCCNCCUNAAANANU; chain 2 UAUUUAANGAGGGUGANCUUU; 2'-OMe modifications, chemistry not fully specified)
IFIT1 induction (QG analysis) (IFN-α, IFIT1 mRNA): no significant IFIT1 induction above that of empty SNALP
IgG / IgM antibody response against PEG-lipid (PEG-cDMA) [4]: almost no detectable antibody responses against the PEG-lipid

PLK1424 2/4: 2′OMe-modified PLK1424 siRNA, SEQ ID NO:400/401 (chain 1 AGANCACCCNCCUNAAANANU; chain 2 UAUUUAANGAGGGUGANCUUC; 2'-OMe modifications, chemistry not fully specified)
IFIT1 induction (QG analysis) (IFN-α, IFIT1 mRNA): no significant IFIT1 induction above that of empty SNALP
IgG / IgM antibody response against PEG-lipid (PEG-cDMA) [4]: almost no detectable antibody responses against the PEG-lipid

PLK1424 2/6: 2′OMe-modified PLK1424 siRNA, SEQ ID NO:400/403 (chain 1 AGANCACCCNCCUNAAANANU; chain 2 UAUUUAANGAGGGUNANCUNC; 2'-OMe modifications, chemistry not fully specified)
IFIT1 induction (QG analysis) (IFN-α, IFIT1 mRNA): no significant IFIT1 induction above that of empty SNALP
IgG / IgM antibody response against PEG-lipid (PEG-cDMA) [4]: almost no detectable antibody responses against the PEG-lipid
